From ChEMBL document CHEMBL5500382, “Discovery of potent small molecule ubiquitin-specific protease 10 inhibitors with anti-hepatocellular carcinoma activity through regulating YAP expression” (Eur J Med Chem, 2024)

Molecular target: T1, Ubiquitin carboxyl-terminal hydrolase 13 (Homo sapiens, UniProt Q92995)
T1 sequence (Q92995 whole entry): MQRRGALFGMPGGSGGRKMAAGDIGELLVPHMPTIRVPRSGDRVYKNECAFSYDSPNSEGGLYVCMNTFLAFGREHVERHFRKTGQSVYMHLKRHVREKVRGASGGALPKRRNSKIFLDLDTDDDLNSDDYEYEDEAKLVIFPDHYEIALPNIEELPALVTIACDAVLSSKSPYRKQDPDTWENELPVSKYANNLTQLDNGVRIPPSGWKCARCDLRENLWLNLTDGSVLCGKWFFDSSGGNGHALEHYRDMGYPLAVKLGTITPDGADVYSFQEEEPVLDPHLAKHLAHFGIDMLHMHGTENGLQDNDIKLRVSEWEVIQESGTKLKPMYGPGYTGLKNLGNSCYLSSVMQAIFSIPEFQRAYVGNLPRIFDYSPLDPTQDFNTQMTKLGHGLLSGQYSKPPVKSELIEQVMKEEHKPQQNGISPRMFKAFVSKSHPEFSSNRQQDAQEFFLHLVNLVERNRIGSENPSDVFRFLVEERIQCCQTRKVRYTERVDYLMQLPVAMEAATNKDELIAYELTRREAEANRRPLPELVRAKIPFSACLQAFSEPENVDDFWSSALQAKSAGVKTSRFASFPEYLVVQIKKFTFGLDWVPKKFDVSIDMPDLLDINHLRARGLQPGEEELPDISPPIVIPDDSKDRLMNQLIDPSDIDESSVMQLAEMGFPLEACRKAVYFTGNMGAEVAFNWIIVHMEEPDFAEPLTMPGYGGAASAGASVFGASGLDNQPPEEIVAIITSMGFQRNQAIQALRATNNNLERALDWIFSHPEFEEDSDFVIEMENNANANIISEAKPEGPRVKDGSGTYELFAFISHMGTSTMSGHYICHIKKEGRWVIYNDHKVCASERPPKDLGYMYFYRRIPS
Test: Inhibition of USP13 (unknown origin)

| Compound | IC50 [µM] |
| --- | --- |
| Fc1ccc(CNc2ncnc3ccc(F)cc23)cc1 | 0.7 |

Molecular target: T2, Ubiquitin carboxyl-terminal hydrolase 10 (Homo sapiens, UniProt Q14694)
T2 sequence (Q14694 whole entry): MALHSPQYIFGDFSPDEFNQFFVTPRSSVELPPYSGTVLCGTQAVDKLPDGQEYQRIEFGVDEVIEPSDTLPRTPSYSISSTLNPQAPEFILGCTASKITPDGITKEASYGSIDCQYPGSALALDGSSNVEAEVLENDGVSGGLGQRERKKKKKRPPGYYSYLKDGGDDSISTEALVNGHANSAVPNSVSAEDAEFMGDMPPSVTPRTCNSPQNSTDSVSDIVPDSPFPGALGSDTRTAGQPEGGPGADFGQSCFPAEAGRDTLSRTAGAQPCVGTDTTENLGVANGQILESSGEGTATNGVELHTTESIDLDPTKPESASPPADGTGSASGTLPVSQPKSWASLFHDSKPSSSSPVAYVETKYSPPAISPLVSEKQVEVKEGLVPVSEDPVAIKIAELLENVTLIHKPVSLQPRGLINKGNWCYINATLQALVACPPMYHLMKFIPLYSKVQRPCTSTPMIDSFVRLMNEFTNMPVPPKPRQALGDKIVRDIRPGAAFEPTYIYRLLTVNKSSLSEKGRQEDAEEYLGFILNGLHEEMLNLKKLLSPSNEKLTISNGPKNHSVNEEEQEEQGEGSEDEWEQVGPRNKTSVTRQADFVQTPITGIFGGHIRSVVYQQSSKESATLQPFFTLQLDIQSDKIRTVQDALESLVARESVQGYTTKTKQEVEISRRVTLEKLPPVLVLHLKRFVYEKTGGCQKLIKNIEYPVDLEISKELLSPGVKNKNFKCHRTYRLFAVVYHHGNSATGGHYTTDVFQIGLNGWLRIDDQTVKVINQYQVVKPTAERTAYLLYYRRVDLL
Test: Inhibition of human USP10 deubiquitinase activity using Ubiquitin 7-amino-4-carbamoylmethylcoumarin as substrate preincubated for 30 mins followed by substrate addition and measured after 30 mins by fluorometric assay

| Compound | IC50 [µM] |
| --- | --- |
| Cc1ccccc1NC(=O)c1cn(CC(=O)NCCc2ccc(Cl)cc2)c2cc(N3CCOCC3)ccc2c1=O | 8.4 |
| COCCOc1ccc(N2CCN(C(=O)Cn3cc(C(=O)Nc4ccccc4C)c(=O)c4ccc(C(F)(F)F)cc43)CC2)cc1 | > 30 |
| C[C@H](NC(=O)c1cn(CC(=O)NCCc2ccc(Cl)cc2)c2cc(C(F)(F)F)ccc2c1=O)c1ccccc1 | > 30 |
| Cc1ccc2c(=O)c(-c3nnc(Cc4ccccc4)o3)cn(CC(=O)NCCc3ccc(Cl)cc3)c2c1 | 9 |
| Cc1ccccc1NC(=O)c1cn(CC(=O)N2CC3(CCN(C(=O)OC(C)(C)C)CC3)C2)c2cc(C(F)(F)F)ccc2c1=O | > 30 |
| Cc1ccc2c(c1)c(=O)c(C(=O)Nc1ccccc1C)cn2CC(=O)NCCc1ccc(Cl)cc1 | > 30 |
| Cc1ccc2c(=O)c(C(=O)N[C@@H](C)c3ccccc3)cn(CC(=O)NCCc3ccc(Cl)cc3)c2c1 | > 30 |
| Cc1ccc2c(=O)c(C(=O)Nc3ccccc3C)cn(CC(=O)NCCc3ccc(Cl)cc3)c2n1 | 9.5 |
| Cc1ccc2c(=O)c(C(=O)N3CCOCC3)cn(CC(=O)NCCc3ccc(Cl)cc3)c2n1 | > 30 |
| COc1ccc2c(=O)c(-c3nc(-c4ccccc4C)no3)cn(CC(=O)NCCc3ccc(Cl)cc3)c2c1 | 7.9 |

Second part, the compound after the results:

| IC50 [µM] | Compound |
| --- | --- |
| > 30 | Cc1ccccc1NC(=O)c1cn(CC(=O)N2CCC(N3CCN(C)CC3)CC2)c2cc(C(F)(F)F)ccc2c1=O |
| 21.2 | COc1ccc([C@H](C)NC(=O)c2cn(CC(=O)NCCc3ccc(Cl)cc3)c3cc(C)ccc3c2=O)cc1 |
| 11.1 | Cc1ccc2c(=O)c(-c3nc(-c4ccccc4C)no3)cn(CC(=O)Nc3c(F)cccc3F)c2n1 |
| 9.2 | Cc1ccc2c(=O)c(-c3nc(-c4ccccc4C)no3)cn(CC(=O)NC3CCN(c4ccc(Cl)cc4)CC3)c2c1 |
| 11.9 | C[C@H](NC(=O)c1cn(CC(=O)NCCc2ccc(Cl)cc2)c2cc(F)ccc2c1=O)c1ccccc1 |
| 10.9 | Cc1ccc2c(=O)c(C(=O)N[C@@H](C)c3ccccc3)cn(CC(=O)N3CCN(c4ccc(Cl)cc4)CC3)c2c1 |
| > 30 | Cc1ccc2c(=O)c(C(=O)N[C@@H](C)c3ccc(F)cc3)cn(CC(=O)NCCc3ccc(Cl)cc3)c2c1 |
| > 30 | Cc1ccc2c(=O)c(C(=O)NC3CCOCC3)cn(CC(=O)NCCc3ccc(Cl)cc3)c2n1 |
| > 30 | Cc1ccccc1NC(=O)c1c[nH]c2cc(C(F)(F)F)ccc2c1=O |
| > 30 | Cc1ccccc1NC(=O)c1cn(CC(=O)NCCc2ccc(Cl)cc2)c2ccc(F)cc2c1=O |
| > 30 | Cc1ccccc1NC(=O)c1cn(CC(=O)NC(C)CO)c2cc(C(F)(F)F)ccc2c1=O (stereo not given) |
| 10.6 | Cc1ccccc1NC(=O)c1cn(CC(=O)NCCc2ccc(Cl)cc2)c2cc(N3CCCCC3)ccc2c1=O |

Molecular target: T2, Ubiquitin carboxyl-terminal hydrolase 10
Test: Inhibition of human recombinant his tagged USP10 assessed as deubiquitinase activity

| Compound | IC50 [µM] |
| --- | --- |
| CCOC(=O)c1cc([N+](=O)[O-])c(Oc2ccc(C(=O)OC)cc2)s1 | 8.3 |

Tested on: Bel-7402
Test: Antiproliferative activity against human Bel-7402 cells by CCK-8 method

| Compound | IC50 [µM] |
| --- | --- |
| Cc1ccc2c(=O)c(-c3nc(-c4ccccc4C)no3)cn(CC(=O)Nc3c(F)cccc3F)c2n1 | 22.7 |
